Test results: publication PMC5593877, “Identification of endoxylanase XynE from Clostridium thermocellum as the first xylanase of glycoside hydrolase family GH141” (Scientific Reports, 2017)

Target: T1, Xyn141E (Acetivibrio thermocellus, UniProt A3DHG8)
T1 construct: gene Cthe_2195
Assay: HPAEC-PAD of hydrolysis products
Assay type: biochemical
Details: 200 µg/mL substrate, 100 µg/mL enzyme, 10 mM MOPS pH 6.5, 50 mM NaCl, 10 mM CaCl2, 60 °C, 16 h

T1 sequence (A3DHG8 entry or part of it): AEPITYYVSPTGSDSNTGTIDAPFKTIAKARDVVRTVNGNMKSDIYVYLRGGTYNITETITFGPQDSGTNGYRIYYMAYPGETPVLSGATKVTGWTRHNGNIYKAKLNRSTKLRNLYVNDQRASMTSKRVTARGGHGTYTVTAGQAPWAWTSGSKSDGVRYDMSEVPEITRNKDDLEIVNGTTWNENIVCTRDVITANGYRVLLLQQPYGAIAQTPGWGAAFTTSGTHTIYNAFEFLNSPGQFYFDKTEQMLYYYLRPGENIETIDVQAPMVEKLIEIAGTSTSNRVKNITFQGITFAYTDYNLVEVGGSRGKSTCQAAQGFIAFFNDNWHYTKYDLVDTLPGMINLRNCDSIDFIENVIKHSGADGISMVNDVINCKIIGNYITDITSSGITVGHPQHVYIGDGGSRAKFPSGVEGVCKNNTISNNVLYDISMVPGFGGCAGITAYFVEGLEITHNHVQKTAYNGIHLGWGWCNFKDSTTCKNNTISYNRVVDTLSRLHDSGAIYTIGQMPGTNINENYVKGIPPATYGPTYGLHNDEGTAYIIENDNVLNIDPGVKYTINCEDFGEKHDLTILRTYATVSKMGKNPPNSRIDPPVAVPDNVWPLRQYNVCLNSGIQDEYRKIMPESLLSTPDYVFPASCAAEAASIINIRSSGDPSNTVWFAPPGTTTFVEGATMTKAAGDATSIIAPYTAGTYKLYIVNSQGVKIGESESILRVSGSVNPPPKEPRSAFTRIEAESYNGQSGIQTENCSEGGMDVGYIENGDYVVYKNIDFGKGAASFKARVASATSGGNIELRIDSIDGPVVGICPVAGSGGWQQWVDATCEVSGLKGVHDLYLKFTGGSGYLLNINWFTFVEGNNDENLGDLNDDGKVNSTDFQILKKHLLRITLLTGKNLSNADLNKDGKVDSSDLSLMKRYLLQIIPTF

Compound | HPAEC-PAD of hydrolysis products
OC1OC[C@@H](O[C@@H]2OC[C@@H](O[C@@H]3OC[C@@H](O[C@@H]4OC[C@@H](O[C@@H]5OC[C@@H](O)[C@H](O)[C@H]5O)[C@H](O)[C@H]4O)[C@H](O)[C@H]3O)[C@H](O)[C@H]2O)[C@H](O)[C@H]1O (some centres unmarked) [X5, xylopentaose] | Xyn141E was able to hydrolyse X5 and X4 to X2 and X3 or X2, respectively.
OC1OC[C@@H](O[C@@H]2OC[C@@H](O[C@@H]3OC[C@@H](O[C@@H]4OC[C@@H](O)[C@H](O)[C@H]4O)[C@H](O)[C@H]3O)[C@H](O)[C@H]2O)[C@H](O)[C@H]1O (some centres unmarked) [X4, xylotetraose] | Xyn141E was able to hydrolyse X5 and X4 to X2 and X3 or X2, respectively.
